Results from patent US20260078454A1, “MULTIPLE ANTIBIOTIC BACTERIAL RESPONSE” (priority 2022, published 2026).

Assays:
Pseudomonas aeruginosa = assay: RNA-seq differential expression after single and combined antibiotic exposure; assay type: cell-based; settings: pan susceptible strain; CLSI resistance break point concentration; 60 minutes; regardless of whether the other two antibiotics were present
Protocol: RNA-sequencing (“RNA-seq”) was conducted using two strains of Pseudomonas aeruginosa: one a resistant strain and the second a pan susceptible strain. The strains were cultured to an optical density of 1.0, or approximately 1.5×10^9 genomic copies/mL (measured using digital PCR). The culture was then aliquoted into four independent culture tubes, three of which contained one single antibiotic and the fourth was a no-antibiotic control. Once mixed with antibiotics, where each antibiotic was dosed at its CLSI resistance break point concentration based upon 2021 guidance, the culture aliquots were returned to an incubator set to 37° C. using ambient air and agitated using orbital mixing for 60 minutes. […] Recovered reads were processed through an internal RNA-seq bioinformatics pipeline that includes the following steps: read quality and adapter trimming, surviving reads were assigned a genomic position in the reference P. aeruginosa genome PA01 using Kallisto (and read counts with dispersion estimates calculated), and differential expression analysis comparing each antibiotic treatment with the no-antibiotic control data set were conducted using Sleuth for each strain. […]

Acinetobacter baumannii = assay type: cell-based; settings: for differentially expressed transcripts in common between amikacin and gentamicin: 3.5 hours of exposure; for number of differentially expressed transcripts: pan-susceptible strain, MIC breakpoint, vs no-antibiotic control
Protocol: A pan-susceptible Acinetobacter baumannii was cultured and exposed to each of the nine conditions (including a no-antibiotic control) above as a single-exposure condition, meaning only one antibiotic per sample, no combination of drugs. Antibiotics were dosed at the resistance break point concentration (MIC breakpoint) for each compound according to the 2023 CLSI M100 guidelines. Antibiotic-treated and control cultures were maintained for 0.5 hours, 1.5 hours, 2.5 hours, and 3.5 hours and subsequently harvested to conduct RNA-seq, as discussed above in Example 3. Multiple replicates of this experimental set-up were performed to assess variance of the transcriptional response.
Cultures at the appropriate OD595 were transferred to a 37° C. incubator until the OD595 was between 0.9-1.4. The culture was distributed into individual treatment tubes containing antibiotics (or not for the control condition) and incubated at 37° C. for the specified exposure times (0.5, 1.5, 2.5, 3.5 hrs). At each timepoint, an aliquot of each of the treated and control culture conditions was removed and nucleic acid was extracted on the bioMérieux EMAG platform. […] The nucleic acid extracts were then treated with DNAse to remove all genomic DNA and extracted a second time, resulting in a pure RNA sample for each condition. These RNA samples were sent to the High-Throughput Genomics Core at the Huntsman Cancer Institute at the University of Utah for RNA-sequencing on the Illumina NovaSeq 6000 platform. A total of five biological replicates were made, which would result in 180 RNA-seq samples (36*5), although due to some instrument difficulties an actual total of 161 samples were sent to the sequencing core lab.
Differential expression analysis of RNA-seq read data is as follows. Read data was adapter and quality trimmed using bbduk (bbmap_38.86). Adapter and quality trimmed reads (fastq) were mapped to an Acinetobacter baumannii genome using Kallisto (Kallisto v0.48.0) to generate read counts for each annotated transcript in the genome. Read count data (all conditions) were normalized using Sleuth (0.30.1) and differential expression tests conducted between each independent antibiotic exposure condition and the no-antibiotic time matched control using the lrt test within Sleuth using a qvalue significance cutoff of 0.05 to determine differential expression. Lists of differentially expressed transcripts for each antibiotic and each timepoint were generated and aggregated according to the MOA classes (see prior) to determine if there was significant overlap in the transcriptional response to each MOA class of antibiotics.

| Compound | regulation of antibiotic specific response transcripts (Pseudomonas aeruginosa) | differentially expressed transcripts in common between amikacin and gentamicin (Acinetobacter baumannii) [%] | number of differentially expressed transcripts (Acinetobacter baumannii; 0.5 hrs of exposure) | overlap of gentamicin response with amikacin response (Acinetobacter baumannii; 0.5 hrs of exposure) |
| --- | --- | --- | --- | --- |
| C[C@@H](O)[C@H]1C(=O)N2C(C(=O)O)=C(S[C@@H]3CN[C@H](C(=O)N(C)C)C3)[C@H](C)[C@H]12 [meropenem] | up regulation of five transcripts | – | – | – |
| NCC[C@H](O)C(=O)N[C@@H]1C[C@H](N)[C@@H](O[C@H]2O[C@H](CN)[C@@H](O)[C@H](O)[C@H]2O)[C@H](O)[C@H]1O[C@H]1O[C@H](CO)[C@@H](O)[C@H](N)[C@H]1O [amikacin] | – | 93.2 | 1825 | – |
| C[C@H]1COc2c(N3CCN(C)CC3)c(F)cc3c(=O)c(C(=O)O)cn1c23 [levofloxacin] | – | – | 1394 | – |
| gentamicin | up regulation of eight transcripts | 93.2 | 6 | fully contained within the amikacin response |
